Molecular target: G-protein coupled receptor 52 (Homo sapiens, UniProt Q9Y2T5)
Test: Antagonist activity at GPR52 (unknown origin) expressed in HEK293 cells assessed as inhibition of WO459-induced cAMP accumulation preincubated for 15 mins followed by WO459 addition and measured after 30 mins by LANCE Ultra cAMP kit based microplate reader analysis
Format: functional, cell-based
Conditions: read-out: IC50

Sequence of G-protein coupled receptor 52 (Q9Y2T5 whole entry): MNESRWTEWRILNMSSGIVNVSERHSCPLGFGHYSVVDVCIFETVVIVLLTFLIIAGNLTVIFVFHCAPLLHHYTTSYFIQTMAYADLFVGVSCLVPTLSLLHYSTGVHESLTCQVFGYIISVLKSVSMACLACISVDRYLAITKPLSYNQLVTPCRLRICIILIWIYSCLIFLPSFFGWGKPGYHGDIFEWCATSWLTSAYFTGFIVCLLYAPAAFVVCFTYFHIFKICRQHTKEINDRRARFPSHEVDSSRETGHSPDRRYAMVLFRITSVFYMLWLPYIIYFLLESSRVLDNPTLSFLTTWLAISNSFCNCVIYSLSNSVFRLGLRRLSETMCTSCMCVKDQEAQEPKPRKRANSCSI

SMILES	IC50
COc1cccc(C(=O)/C=C/CCc2ccccc2)c1	1.49 µM
O=C(/C=C/CCc1ccccc1)c1cccc(-c2ccccc2)c1	8.13 µM
